Where a name gives a salt, the structure may show the parent alone.
What was measured:
[1] = biological target: T1, hα2A receptor (Homo sapiens, UniProt P08913); assay: Radioligand binding experiment for α2A-adrenoceptor ([3H]raulwolscine, CHO cell membranes); settings: [3H]raulwolscine binding; for IC50: read-out: h-α2A pIC50 (converted)
T1 construct: expressed in transfected cells; host or cells: CHO cells, stably transfected; membrane preparation
T1 sequence (P08913 1-465): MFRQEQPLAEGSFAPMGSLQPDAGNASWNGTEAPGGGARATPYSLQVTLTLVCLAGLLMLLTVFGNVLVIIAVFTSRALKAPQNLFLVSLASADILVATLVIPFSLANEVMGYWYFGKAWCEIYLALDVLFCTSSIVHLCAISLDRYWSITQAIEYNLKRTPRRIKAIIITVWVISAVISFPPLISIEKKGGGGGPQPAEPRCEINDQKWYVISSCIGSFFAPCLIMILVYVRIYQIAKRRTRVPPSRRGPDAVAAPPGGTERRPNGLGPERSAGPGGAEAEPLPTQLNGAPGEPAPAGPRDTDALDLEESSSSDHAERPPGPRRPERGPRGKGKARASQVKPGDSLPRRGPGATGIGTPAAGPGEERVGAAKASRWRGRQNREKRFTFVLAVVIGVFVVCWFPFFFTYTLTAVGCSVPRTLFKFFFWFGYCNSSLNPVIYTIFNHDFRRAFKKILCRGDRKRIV

[2] = biological target: T2, hα2C receptor (Homo sapiens, UniProt P18825); assay: Radioligand binding experiment for α2C-adrenoceptor ([3H]raulwolscine, CHO cell membranes); settings: [3H]raulwolscine binding; for IC50: read-out: h-α2C pIC50 (converted)
T2 construct: expressed in transfected cells; host or cells: CHO cells, stably transfected; membrane preparation
T2 sequence (P18825 1-462): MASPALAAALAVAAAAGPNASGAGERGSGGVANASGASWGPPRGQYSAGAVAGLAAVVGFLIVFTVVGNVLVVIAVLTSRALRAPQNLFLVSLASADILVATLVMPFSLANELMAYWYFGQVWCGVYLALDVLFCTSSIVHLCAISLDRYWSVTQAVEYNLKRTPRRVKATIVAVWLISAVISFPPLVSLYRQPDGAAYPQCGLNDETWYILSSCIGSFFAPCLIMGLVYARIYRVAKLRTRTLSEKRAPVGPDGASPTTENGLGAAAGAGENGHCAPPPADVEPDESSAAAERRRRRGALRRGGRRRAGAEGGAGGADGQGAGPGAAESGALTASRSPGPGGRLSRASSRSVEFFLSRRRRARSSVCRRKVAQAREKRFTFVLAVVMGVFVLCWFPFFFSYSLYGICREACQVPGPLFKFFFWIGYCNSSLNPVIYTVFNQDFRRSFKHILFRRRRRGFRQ

[3] = biological target: T3, 5HT-Transporter (Homo sapiens, UniProt P31645); assay: Binding experiment for the 5HT-transporter ([3H]paroxetine, human platelet membranes); settings: [3H]paroxetine 0.5 nM; for IC50: read-out: h-5HTT pIC50 (converted)
T3 construct: Human platelet membranes (Oceanix Biosciences Corporation, Hanover, Md., USA) were thawed; tissue Oceanix Biosciences Corporation, Hanover, Md., USA; host or cells: human platelet membranes
How it was run: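 Filter-bound radioactivity from human platelet membranes incubated with [3H]paroxetine and test compound (buffer Tris-HCl 50 mM, 120 mM NaCl, 5 mM KCl) was counted.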

T3 sequence (P31645 whole entry): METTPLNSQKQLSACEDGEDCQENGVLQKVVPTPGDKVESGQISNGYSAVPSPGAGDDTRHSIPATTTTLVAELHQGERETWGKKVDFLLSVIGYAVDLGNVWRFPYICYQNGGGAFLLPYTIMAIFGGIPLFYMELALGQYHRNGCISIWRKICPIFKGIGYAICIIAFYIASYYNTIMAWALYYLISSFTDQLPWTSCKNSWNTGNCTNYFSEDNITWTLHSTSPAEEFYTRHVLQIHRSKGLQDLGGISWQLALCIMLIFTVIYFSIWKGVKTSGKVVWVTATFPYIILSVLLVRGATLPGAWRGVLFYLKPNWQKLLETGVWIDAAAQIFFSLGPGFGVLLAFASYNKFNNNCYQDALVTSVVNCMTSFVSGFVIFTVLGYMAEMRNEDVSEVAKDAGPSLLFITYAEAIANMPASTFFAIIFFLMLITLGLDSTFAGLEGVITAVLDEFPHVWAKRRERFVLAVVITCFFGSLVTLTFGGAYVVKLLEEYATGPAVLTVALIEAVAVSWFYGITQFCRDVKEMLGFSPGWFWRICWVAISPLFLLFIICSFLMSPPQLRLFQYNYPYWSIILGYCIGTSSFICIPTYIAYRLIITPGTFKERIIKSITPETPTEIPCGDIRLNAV

C/C(=C\c1ccccc1)CN1CCC(Nc2nccn(CC#CCN3C(=O)c4ccccc4C3=O)c2=O)CC1 (as salt: trifluoroacetate) [2-54]
melting point: 67 °C

C/C(=C\c1ccccc1)CN1CCC(Nc2nccn(-c3ccc(CN(C)CCN(C)C)cc3)c2=O)CC1 [1-110]
IC50 [1]: 20 nM | IC50 [2]: 2 nM | IC50 [3]: 501 nM | melting point: 115 °C

C/C(=C\c1ccccc1)CN1CCC(Nc2nccn(Cc3ccc(CNC(=O)c4ccco4)cc3)c2=O)CC1 [1-152]
IC50 [1]: 126 nM | IC50 [2]: 31.6 nM | IC50 [3]: 501 nM | melting point: 103 °C

C/C(=C\c1ccccc1)CN1CCC(Nc2nccn(CCCNCc3ccccc3)c2=O)CC1 (as salt: HCl) [1-47]
melting point: 270 °C

C/C(=C\c1ccccc1)CN1CCC(Nc2nccn(-c3ccsc3)c2=O)CC1 [6-4]
IC50 [1]: 39.8 nM | IC50 [2]: 6.31 nM | IC50 [3]: 1000 nM | melting point: 210 °C

C/C(=C\c1ccccc1)CN1CCC(Nc2nccn(Cc3cc(C)on3)c2=O)CC1 [6-3]
IC50 [1]: 63.1 nM | IC50 [2]: 31.6 nM | IC50 [3]: 2000 nM | melting point: 107 °C

C/C(=C\c1ccccc1)CN1CCC(Nc2nccn(Cc3ccc([N+](=O)[O-])cc3)c2=O)CC1 [5-25]
IC50 [1]: 126 nM | IC50 [2]: 31.6 nM | IC50 [3]: 631 nM | melting point: 123 °C

C/C(=C\c1ccccc1)CN1CCC(Nc2nccn(Cc3ccc(OC(F)(F)F)cc3)c2=O)CC1 [3-15]
IC50 [1]: 251 nM | IC50 [2]: 126 nM | IC50 [3]: 1260 nM | melting point: 99 °C

C/C(=C\c1ccccc1)CN1CCC(Nc2nccn(CCCN(C)C)c2=O)CC1 [1-14]
IC50 [1]: 63.1 nM | IC50 [3]: 6310 nM | melting point: 254 °C

C/C(=C\c1ccccc1)CN1CCC(Nc2nccn(CCN3CCCCC3)c2=O)CC1 (as salt: HCl) [2-4]
melting point: 294 °C

CC(=O)CNCCCn1ccnc(NC2CCN(C/C(C)=C/c3ccccc3)CC2)c1=O [1-37]
IC50 [1]: 79.4 nM | IC50 [2]: 3.98 nM | IC50 [3]: 1260 nM | melting point: 160 °C

C/C(=C\c1ccccc1)CN1CCC(Nc2nccn(CC(=O)c3ccc(N4CCCC4)cc3)c2=O)CC1 [2-1]
IC50 [1]: 31.6 nM | IC50 [2]: 39.8 nM | IC50 [3]: 1260 nM

C/C(=C\c1ccccc1)CN1CCC(Nc2nccn(CCCN(Cc3ccccc3)C(=O)Nc3ccccc3)c2=O)CC1 [1-123]
IC50 [1]: 158 nM | IC50 [2]: 12.6 nM | IC50 [3]: 631 nM

C/C(=C\c1ccccc1)CN1CCC(Nc2nccn(-c3ccc(C(=O)N4CCC(C)CC4)cc3)c2=O)CC1 [2-11]
IC50 [1]: 63.1 nM | IC50 [2]: 6.31 nM | IC50 [3]: 501 nM

CCOC(=O)Cn1ccnc(NC2CCN(C/C(C)=C/c3ccccc3)CC2)c1=O [3-16]
IC50 [1]: 126 nM | IC50 [2]: 15.8 nM | IC50 [3]: > 10000 nM

C/C(=C\c1ccccc1)CN1CCC(Nc2nccn(Cc3ccc(CN)cc3)c2=O)CC1 (as salt: HCl) [1-7]
melting point: 231 °C

CCCNC(=O)c1ccc(-n2ccnc(NC3CCN(C/C(C)=C/c4ccccc4)CC3)c2=O)cc1 [1-13]
IC50 [1]: 79.4 nM | IC50 [2]: 7.94 nM | IC50 [3]: 398 nM

C/C(=C\c1ccccc1)CN1CCC(Nc2nccn(CCCNc3ccccc3)c2=O)CC1 [1-39]
IC50 [1]: 79.4 nM | IC50 [2]: 7.94 nM | IC50 [3]: 200 nM

C/C(=C\c1ccccc1)CN1CCC(Nc2nccn(-c3nccs3)c2=O)CC1 [6-5]
IC50 [1]: 50.1 nM | IC50 [2]: 7.94 nM | IC50 [3]: 316 nM

C/C(=C\c1ccccc1)CN1CCC(Nc2nccn(-c3ccc(C(=O)NCCN4CCCCC4)cc3)c2=O)CC1 [1-140]
IC50 [1]: 39.8 nM | IC50 [2]: 3.98 nM | IC50 [3]: 200 nM

CCCNCc1cccc(-n2ccnc(NC3CCN(C/C(C)=C/c4ccccc4)CC3)c2=O)c1 [1-12]
h-α2A pIC50 [1]: 8.4 | h-α2C pIC50 [2]: 9.0 | h-5HTT pIC50 [3]: 6.1

C/C(=C\c1ccccc1)CN1CCC(Nc2nccn(CC(=O)N3CCN(c4ccccc4)CC3)c2=O)CC1 [2-26]
IC50 [1]: 126 nM | IC50 [2]: 7.94 nM | IC50 [3]: 794 nM

COC(=O)c1ccc(Cn2ccnc(NC3CCN(C/C(C)=C/c4ccccc4)CC3)c2=O)cc1 [3-14]
IC50 [1]: 79.4 nM | IC50 [2]: 63.1 nM | IC50 [3]: 794 nM

— US20090111801A1, “SUBSTITUTED PYRAZINONE DERIVATIVES FOR USE AS A MEDICINE” (Janssen Pharmaceutica N.V., priority 2006, published 2009)
